Laboratory results published in patent US9290451B2 (Hoffmann-La Roche Inc., priority 2011, dated 2016).
Like-named read-outs stand apart in the source and are kept apart here.

Assays:
[1] = target: human CB1 receptors (Homo sapiens (Human), UniProt P21554); assay: cAMP assay, CHO cells expressing human CB1 receptors; type: cell-based
Procedure, shortened: (§1)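 Whole CHO cells were preincubated in Krebs Ringer bicarbonate buffer with 1 mM IBMX for 30 min at 30 °C, then exposed to compounds for 30 min at 30 °C. cAMP was quantified by time-resolved FRET (cAMP-Nano-TRF) against a standard curve, and EC50 values were derived.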

[2] = target: human CB2 receptors (Homo sapiens (Human), UniProt P34972); assay: cAMP assay, CHO cells expressing human CB2 receptors; type: cell-based
Sequence of human CB2 receptors (P34972 whole entry): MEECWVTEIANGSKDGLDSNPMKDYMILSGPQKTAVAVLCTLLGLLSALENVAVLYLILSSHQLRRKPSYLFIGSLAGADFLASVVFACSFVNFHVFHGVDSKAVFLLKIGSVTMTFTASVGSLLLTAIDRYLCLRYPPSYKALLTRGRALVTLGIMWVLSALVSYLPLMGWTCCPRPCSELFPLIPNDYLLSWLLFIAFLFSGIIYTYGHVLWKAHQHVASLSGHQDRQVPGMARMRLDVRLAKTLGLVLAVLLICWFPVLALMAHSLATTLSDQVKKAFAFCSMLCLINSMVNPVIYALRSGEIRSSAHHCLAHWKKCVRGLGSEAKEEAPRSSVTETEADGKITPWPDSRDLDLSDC
Procedure, shortened: as §1

[3] = CHO cells expressing human CB1, cAMP, read-out: human CB1 EC50
[4] = CHO cells expressing human CB2, cAMP, read-out: human CB2 EC50

Sequence of human CB1 receptors (P21554 whole entry): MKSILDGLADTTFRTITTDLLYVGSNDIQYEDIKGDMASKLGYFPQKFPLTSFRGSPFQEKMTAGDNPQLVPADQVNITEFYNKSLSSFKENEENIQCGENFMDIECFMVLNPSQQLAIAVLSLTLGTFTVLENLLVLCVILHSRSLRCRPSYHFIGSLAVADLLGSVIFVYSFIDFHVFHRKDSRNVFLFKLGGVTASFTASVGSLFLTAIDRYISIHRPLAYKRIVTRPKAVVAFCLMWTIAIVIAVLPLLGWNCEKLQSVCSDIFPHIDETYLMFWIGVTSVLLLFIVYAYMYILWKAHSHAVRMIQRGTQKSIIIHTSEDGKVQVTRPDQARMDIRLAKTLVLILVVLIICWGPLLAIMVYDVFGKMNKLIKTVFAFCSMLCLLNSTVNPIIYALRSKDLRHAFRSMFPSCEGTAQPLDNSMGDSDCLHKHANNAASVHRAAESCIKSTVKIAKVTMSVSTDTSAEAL

SMILES | EC50 [1, 3] [µM] | EC50 [2, 4] [nM] | EC50 [1] [µM] | EC50 [2] [nM]
CC(C)C[C@H](NC(=O)c1ccc(N2CC(F)(F)C2)c(OCC2CC2)n1)c1cccnn1 [Example 355, 6-Cyclopropylmethoxy-5-(3,3-difluoro-azetidin-1-yl)-pyridine-2-carboxylic acid ((S)-3-methyl-1-pyridazin-3-yl-butyl)-amide] | > 10 | 80.1 | – | –
CC(C)C[C@H](NC(=O)c1ccc(C2CCCO2)c(OCC2CC2)n1)C(N)=O (stereo partly drawn) [Example 115, 6-Cyclopropylmethoxy-5-(tetrahydro-furan-2-yl)-pyridine-2-carboxylic acid ((S)-1-carbamoyl-3-methyl-butyl)-amide] | 0.953 | 6.6 | – | –
CC(C)C[C@H](NC(=O)c1ccc(C2CC2)c(OCC2CCCO2)n1)C(N)=O (stereo partly drawn) [Example 186, N-((S)-1-Amino-4-methyl-1-oxopentan-2-yl)-5-cyclopropyl-6-((tetrahydrofuran-2-yl)methoxy)picolinamide] | 1.49 | 1.1 | – | –
CNC(=O)C(C)(C)NC(=O)c1ccc(C)c(OCC2CC2)n1 [Example 36, 6-Cyclopropylmethoxy-5-methyl-pyridine-2-carboxylic acid (1-methyl-1-methylcarbamoyl-ethyl)-amide] | > 10 | 974 | – | –
CC(C)C[C@H](NC(=O)c1ccc(Cl)c(-c2cccc(Cl)c2)n1)C(N)=O [Example 105, 5-Chloro-6-(3-chloro-phenyl)-pyridine-2-carboxylic acid ((S)-1-carbamoyl-3-methyl-butyl)-amide] | > 10 | 208 | – | –
Cc1nc([C@](C)(NC(=O)c2ccc(C3CC3)c(S(=O)(=O)CC(C)C)n2)C2CC2)no1 [Example 381, (+)-5-Cyclopropyl-6-(2-methyl-propane-1-sulfonyl)-pyridine-2-carboxylic acid [1-cyclopropyl-1-(5-methyl-[1,2,4]oxadiazol-3-yl)-ethyl]-amide] | 0.24 | 11.4 | – | –
NC(=O)[C@H](CC1CC1)NC(=O)c1ccc(N2CC(F)(F)C2)c(OCC2CC2)n1 [Example 103, 6-Cyclopropylmethoxy-5-(3,3-difluoro-azetidin-1-yl)-pyridine-2-carboxylic acid ((S)-1-carbamoyl-2-cyclopropyl-ethyl)-amide] | > 10 | 7 | – | –
O=C(NNC1CCS(=O)(=O)C1)c1cccc(Cc2ccc(F)cc2)n1 (stereo not shown) [Example 308, 6-(4-Fluoro-benzyl)-pyridine-2-carboxylic acid N′-(1,1-dioxo-tetrahydro-1λ^6-thiophen-3-yl)-hydrazide] | > 10 | 580 | – | –
Cc1nc(C(C)(C)NC(=O)c2ccc(C3CC3)c(-c3cccc(Cl)c3)n2)no1 [Example 96, 6-(3-Chloro-phenyl)-5-cyclopropyl-pyridine-2-carboxylic acid [1-methyl-1-(5-methyl-[1,2,4]oxadiazol-3-yl)-ethyl]-amide] | 1.44 | 95.8 | – | –
O=C(N[C@@H](CC1CC1)C(=O)NN1CCC(O)C1)c1ccc(C2CC2)c(OCC2CC2)n1 (single isomer, unassigned; (-)) [Example 380] | > 10 | 584 | – | –
O=C(NN1CCCCC1)c1cccc(C2CCCCC2)n1 [Example 24, 6-Cyclohexyl-pyridine-2-carboxylic acid piperidin-1-ylamide] | > 10 | 15.6 | – | –
CC(C)(NC(=O)c1ccc(C2CCCO2)c(-c2cccc(Cl)c2)n1)c1nccs1 (stereo not shown) [Example 127, 6-(3-Chloro-phenyl)-5-(tetrahydro-furan-2-yl)-pyridine-2-carboxylic acid (1-methyl-1-thiazol-2-yl-ethyl)-amide] | > 10 | 224 | – | –
CC(C)(C)C(NC(=O)c1ccc(C2CC2)c(OCC2CC2)n1)C(N)=O (stereo not shown) [Example 179, N-(1-Amino-3,3-dimethyl-1-oxobutan-2-yl)-5-cyclopropyl-6-(cyclopropylmethoxy)picolinamide] | 0.514 | 3.8 | – | –
Cc1nc([C@](C)(CC2CC2)NC(=O)c2ccc(C3CC3)c(OCC3CC3)n2)no1 [Example 357, 5-Cyclopropyl-6-cyclopropylmethoxy-pyridine-2-carboxylic acid [(+)-2-cyclopropyl-1-methyl-1-(5-methyl-[1,2,4]oxadiazol-3-yl)-ethyl]-amide] | 0.199 | 1.5 | – | –
CC(C)[C@](C)(CO)NC(=O)c1ccc(C2CC2)c(OCC2CC2)n1 [Example 191, 5-Cyclopropyl-6-cyclopropylmethoxy-pyridine-2-carboxylic acid ((R)-1-hydroxymethyl-1,2-dimethyl-propyl)-amide] | > 10 | 57.7 | – | –
CC(C)(NC(=O)c1ccc(C(F)(F)F)c(OCC2CC2)n1)c1ncon1 [Example 119, 6-Cyclopropylmethoxy-5-trifluoromethyl-pyridine-2-carboxylic acid (1-methyl-1-[1,2,4]oxadiazol-3-yl-ethyl)-amide] | > 10 | 227 | – | –

SMILES | EC50 [1, 3] [µM] | EC50 [2, 4] [nM] | EC50 [1] [µM] | EC50 [2] [nM]
CCC(CC)(NC(=O)c1ccc(C2CC2)c(OCC2CC2)n1)C(=O)NCC1CC1 [Example 284, 5-Cyclopropyl-6-cyclopropylmethoxy-pyridine-2-carboxylic acid [1-(cyclopropylmethyl-carbamoyl)-1-ethyl-propyl]-amide] | > 10 | 27 | – | –
CC(C)C[C@H](NC(=O)c1ccc(N2CC(O)C2)c(OCC2CC2)n1)C(N)=O [Example 131, 6-Cyclopropylmethoxy-5-(3-hydroxy-azetidin-1-yl)-pyridine-2-carboxylic acid ((S)-1-carbamoyl-3-methyl-butyl)-amide] | > 10 | 78.4 | – | –
CNC(=O)[C@@H](NC(=O)c1ccc(C2CC2)c(OCC2CC2)n1)c1ccccc1 [Example 225, 5-Cyclopropyl-6-cyclopropylmethoxy-pyridine-2-carboxylic acid ((−)-methylcarbamoyl-phenyl-methyl)-amide] | > 10 | 48.4 | – | –
Cc1ccc(C(=O)NC(C)(C)c2nccs2)nc1OCC1CC1 [Example 62, 6-Cyclopropylmethoxy-5-methyl-pyridine-2-carboxylic acid (1-methyl-1-thiazol-2-yl-ethyl)-amide] | 0.561 | 11.5 | – | –
CC(C)CC(C)(CO)NC(=O)c1ccc(N2CC(F)(F)C2)c(OCC2CC2)n1 (stereo not shown) [Example 273, 6-Cyclopropylmethoxy-5-(3,3-difluoro-azetidin-1-yl)-pyridine-2-carboxylic acid (1-hydroxymethyl-1,3-dimethyl-butyl)-amide] | – | – | 1.25 | 5.4
COC(=O)[C@H](CC1CC1)NC(=O)c1ccc(C2CC2)c(OCC2CC2)n1 [Example 258, (S)-3-Cyclopropyl-2-[(5-cyclopropyl-6-cyclopropylmethoxy-pyridine-2-carbonyl)-amino]-propionic acid methyl ester] | > 10 | 7.1 | – | –
CCC(CC)(NC(=O)c1ccc(C(F)(F)F)c(OCC2CCOCC2)n1)C(=O)N(C)C [Example 262, 6-(Tetrahydro-pyran-4-ylmethoxy)-5-trifluoromethyl-pyridine-2-carboxylic acid (1-dimethylcarbamoyl-1-ethyl-propyl)-amide] | > 10 | 74.8 | – | –
O=C(N[C@@H](c1cccnc1)C(F)(F)F)c1ccc(C2CC2)c(OCC2CC2)n1 [Example 217, (S)-5-Cyclopropyl-6-(cyclopropylmethoxy)-N-(2,2,2-trifluoro-1-(pyridin-3-yl)ethyl)-picolinamide] | > 10 | 41.1 | – | –
Cc1nc([C@H](CC(C)C)NC(=O)c2cccc(C(O)c3ccc(F)cc3)n2)no1 (stereo partly drawn) [Example 318, 6-[(4-Fluoro-phenyl)-hydroxy-methyl]-pyridine-2-carboxylic acid [(S)-3-methyl-1-(5-methyl-[1,2,4]oxadiazol-3-yl)-butyl]-amide] | > 10 | 25.1 | – | –
CC(C)CC(NC(=O)c1ccc(N2CC(F)(F)C2)c(OCC2CC2)n1)c1cccnn1 (stereo not shown) [Example 321, 6-Cyclopropylmethoxy-5-(3,3-difluoro-azetidin-1-yl)-pyridine-2-carboxylic acid (3-methyl-1-pyridazin-3-yl-butyl)-amide] | > 10 | 18.9 | – | –
Cc1nc(C(C)(C)NC(=O)c2ccc(C3CCOCC3)c(OCC3CC3)n2)no1 [Example 10, 6-Cyclopropylmethoxy-5-(tetrahydro-pyran-4-yl)-pyridine-2-carboxylic acid [1-methyl-1-(5-methyl-[1,2,4]oxadiazol-3-yl)-ethyl]-amide] | > 10 | 88.3 | – | –
CNC(=O)[C@@H](NC(=O)c1cccc(-c2ccccc2)n1)C(C)(C)C [Example 204, (S)-N-(3,3-Dimethyl-1-(methylamino)-1-oxobutan-2-yl)-6-phenylpicolinamide] | 0.737 | 13.2 | – | –
COc1ccc(C(=O)NC(C)(C)c2ncco2)nc1-c1cccc(Cl)c1 [Example 90, 6-(3-Chloro-phenyl)-5-methoxy-pyridine-2-carboxylic acid (1-methyl-1-oxazol-2-yl-ethyl)-amide] | > 10 | 217 | – | –
CC(C)CS(=O)(=O)c1nc(C(=O)N[C@@H](c2cccnc2)C(F)(F)F)ccc1C1CC1 [Example 365, 5-Cyclopropyl-6-(2-methyl-propane-1-sulfonyl)-pyridine-2-carboxylic acid ((S)-2,2,2-trifluoro-1-pyridin-3-yl-ethyl)-amide] | > 10 | 13.9 | – | –
CNC(=O)[C@H](CC(C)C)NC(=O)c1ccc(C2CC2)c(OCC2CC2)n1 [Example 181, (S)-5-cyclopropyl-6-(cyclopropylmethoxy)-N-(4-methyl-1-(methylamino)-1-oxopentan-2-yl)picolinamide] | 0.231 | 1.3 | – | –
CCC(CC)(NC(=O)c1ccc(C(F)(F)F)c(OCC2CC2)n1)C(=O)O [Example 252, 2-[(6-Cyclopropylmethoxy-5-trifluoromethyl-pyridine-2-carbonyl)-amino]-2-ethyl-butyric acid] | > 10 | 552 | – | –
